Data taken from patent US9956319B2, “Compositions useful as antibiofilm or antimicrobial agents and methods using same” (BAYLOR COLLEGE OF MEDICINE, priority 2012, dated 2018).

What was measured:
Type in all cases: cell-based
common pathogens [1] = assay: Antimicrobial activity of impregnated catheters, overall conclusion from Tables 1-8; details: conclusion in words from Tables 1-8
[2] = tested on: methicillin-resistant Staphylococcus epidermidis (MRSE); assay: Bacterial colony counts extracted from impregnated central venous catheters after incubation in bacterial suspension; details: 10^5 cfu/ml suspension in TSB, 37° C., 24 hours
Procedure: (§1) In this example, segments of 7 French triple lumen polyurethane central venous catheters were impregnated with α-lipoic acid using the method described elsewhere (U.S. Pat. No. 6,589,591) and were subjected to zones of inhibition. Briefly, α-lipoic acid was dissolved in 88% formic acid (at a final solution concentration of 50 mg/ml). 85% ortho-Phosphoric acid and glycerol were then added to the solution at 79:8:13 (v/v/v) (formic acid:ortho-phosphoric acid:glycerol). After mixing the solution, 300 mg/ml of potassium chloride was added to the final solution and mixed.
(§2) Catheter segments were then placed in the impregnating solution at 55° C. with agitation for 1 hour in the dark. Catheter segments were then removed from the solution and dried under a fume hood overnight in the dark. Catheter segments were rinsed with deionized water the next day and let dry for another 18 hours in the dark. After the impregnation process and drying, one-centimeter segments of impregnated catheters were individually placed in 1 ml of 10^5 cfu/ml suspensions of methicillin-sensitive Staphylococcus epidermidis (MSSE), methicillin-resistant Staphylococcus epidermidis (MRSE), methicillin-resistant Staphylococcus aureus (MRSA), Klebsiella pneumoniae, Escherichia coli, or Proteus mirabilis in trypticase soy broth (TSB) at 37° C. for 24 hours. One-centimeter segments of non-impregnated catheters were also incubated individually in each bacterial suspension at 37° C. for 24 hours as controls. Catheter segments were removed from each bacterial suspension after this period, shaken to remove excess broth containing free-floating bacteria from their surfaces, placed in 1 ml of normal saline, sonicated for 5 minutes, and vortexed for 30 seconds.
(§3) Aliquots of each suspension and subsequent dilutions were cultured quantitatively.
(§4) To evaluate the anticolonization/antimicrobial activity of central venous catheters treated with lipoamide, segments of 7 French triple lumen polyurethane central venous catheters were impregnated with lipoamide using the same patented method described in Example 1 (U.S. Pat. No. 6,589,591) with 100 mg/ml (final solution volume) of the agent. After the impregnation process and drying, Catheter segments were then placed in the impregnating solution at 55° C. with agitation for 1 hour in the dark. Catheter segments were then removed from the solution and dried under a fume hood overnight in the dark. Catheter segments were rinsed with deionized water the next day and let dry for another 18 hours in the dark. After the impregnation process and drying, one-centimeter segments of impregnated catheters were individually placed in 1 ml of 10^5 cfu/ml suspensions of MRSE, MRSA, or P. aeruginosa in trypticase soy broth (TSB) at 37° C. for 24 hours. One-centimeter segments of non-impregnated catheters were also incubated individually in each bacterial suspension at 37° C. for 24 hours as controls. Catheter segments were removed from each bacterial suspension after this period, shaken to remove excess broth containing free-floating bacteria from their surfaces, placed in 1 ml of normal saline, sonicated for 5 minutes, and vortexed for 30 seconds.
(§5) To evaluate the anticolonization/antimicrobial activity of central venous catheters treated with dihydrolipoic acid, segments of 7 French triple lumen polyurethane central venous catheters were impregnated with dihydrolipoic acid using the same patented method described in Example 1 (U.S. Pat. No. 6,589,591) with 25 mg/ml (final solution volume) of the agent. After the impregnation process and drying, Catheter segments were then placed in the impregnating solution at 55° C. with agitation for 1 hour in the dark. Catheter segments were then removed from the solution and dried under a fume hood overnight in the dark. Catheter segments were rinsed with deionized water the next day and let dry for another 18 hours in the dark. […]

[3] = tested on: methicillin-resistant Staphylococcus aureus (MRSA); assay: as above; details: 10^5 cfu/ml suspension in TSB, 37° C., 24 hours
Procedure: as §1, §2, §3, §4, §5

common pathogens [4] = assay: Anticolonization activity of impregnated central venous catheters, overall result in words; details: result in words summarising the culture results
Procedure: as §2, §3
as §5, with “lipoamide,” for “dihydrolipoic acid,”, “lipoamide” for “dihydrolipoic acid”, “100” for “25”

[5] = catheter impregnated with 25 mg/ml
[6] = catheter impregnated with 100 mg/ml
[7] = catheter impregnated with 50 mg/ml

SMILES: O=C(O)CCCCC(S)CCS (stereo not drawn) [Dihydrolipoic acid, 6,8-dimercaptooctanoic acid]
- intrinsic antimicrobial activity (common pathogens [1]): unexpected intrinsic antimicrobial activities
- Mean bacterial colony counts extracted from catheter [2, 5]: 380
- Mean bacterial colony counts extracted from catheter [3, 5]: 50
- bacterial cells adhered to treated catheter segments compared to control uncoated catheter segments (common pathogens [4]): substantially fewer bacterial cells adhered to them

SMILES: NC(=O)CCCCC1CCSS1 (stereo not drawn) [Lipoamide, lipoamide]
- intrinsic antimicrobial activity (common pathogens [1]): unexpected intrinsic antimicrobial activities
- Mean bacterial colony counts extracted from catheter [2, 6]: 0
- Mean bacterial colony counts extracted from catheter [3, 6]: 0
- bacterial cells adhered to treated catheter segments compared to control uncoated catheter segments (common pathogens [4]): substantially fewer or no bacterial cells adhered to them

SMILES: O=C(O)CCCCC1CCSS1 (stereo not drawn) [Lipoic acid, 1,2-dithiolane-3-pentanoic acid]
- intrinsic antimicrobial activity (common pathogens [1]): unexpected intrinsic antimicrobial activities
- Bacterial colony counts extracted from central venous catheters [2, 7]: 60
- Bacterial colony counts extracted from central venous catheters [3, 7]: 0
- bacterial cells adhered to treated catheter segments compared to control uncoated catheter segments (common pathogens [4]): substantially fewer or no bacterial cells adhered to them
